# Results from ChEMBL document CHEMBL4028822, “Identification and structure activity relationship of novel flavone derivatives that inhibit the production of nitric oxide and PGE2 in LPS-induced RAW 264.7 cells” (Bioorg Med Chem Lett, 2017).
# Assays:
# RAW264.7 [1] = test: Antiinflammatory activity in mouse RAW264.7 cells assessed as inhibition of LPS-stimulated NO production at 20 uM by ELISA relative to control; format: functional
# [2] = Cytotoxicity against LPS-stimulated mouse RAW264.7 cells assessed as cell viability at 20 uM by MTT assay (reference value: 100.01 +/- 0.05 %); format: cell-based; details: LPS-stimulated RAW264.7 cells, read-out: Activity
# RAW264.7 [3] = test: Antiinflammatory activity in mouse RAW264.7 cells assessed as inhibition of LPS-stimulated PGE2 production by ELISA; format: functional, cell-based
# RAW264.7 [4] = test: Antiinflammatory activity in mouse RAW264.7 cells assessed as inhibition of LPS-stimulated NO production by ELISA; format: functional, cell-based
# RAW264.7 [5] = test: Cytotoxicity against mouse RAW264.7 cells by MTT assay; format: cell-based
# RAW264.7 [6] = test: Antiinflammatory activity in mouse RAW264.7 cells assessed as inhibition of LPS-stimulated NO production at 5 uM by ELISA relative to control; format: functional
# [7] = Cytotoxicity against LPS-stimulated mouse RAW264.7 cells assessed as cell viability at 5 uM by MTT assay (reference value: 100.01 +/- 0.05 %); format: cell-based; details: LPS-stimulated RAW264.7 cells, read-out: Activity
# RAW264.7 [8] = test: Antiinflammatory activity in mouse RAW264.7 cells assessed as inhibition of LPS-stimulated NO production at 10 uM by ELISA relative to control; format: functional
# [9] = Cytotoxicity against LPS-stimulated mouse RAW264.7 cells assessed as cell viability at 10 uM by MTT assay (reference value: 100.01 +/- 0.05 %); format: cell-based; details: LPS-stimulated RAW264.7 cells, read-out: Activity
Compound,inhibition at 20 µM (RAW264.7 [1]),viability at 20 µM [2],IC50 (RAW264.7 [3]),other results
COc1ccc2oc(-c3ccccc3)cc(=O)c2c1 [6-METHOXYFLAVONE],22.2%,116%,–,–
"COc1ccc(-c2cc(=O)c3ccccc3o2)cc1OC [3',4'-DIMETHOXYFLAVONE]",33.3%,117%,6.46 µM,IC50 (RAW264.7 [4]): 34.5 µM; IC50 (RAW264.7 [5]): 39.7 µM
O=c1cc(-c2ccc(C(F)(F)F)cc2)oc2ccccc12,10.7%,87.9%,–,–
COc1cc(OC)c2c(=O)cc(-c3ccccc3)oc2c1 [CHRYSIN DIMETHYL ETHER],31.5%,134%,7.43 µM,IC50 (RAW264.7 [4]): 33.2 µM; IC50 (RAW264.7 [5]): 65.6 µM
O=c1cc(-c2ccccc2)oc2ccc(F)cc12,20.4%,75.2%,–,–
O=c1cc(-c2ccc(F)cc2)oc2ccccc12,21.2%,92.4%,–,–
O=c1cc(-c2ccc(O)c(O)c2)oc2cc(O)cc(O)c12 [LUTEOLIN],–,–,2.87 µM,IC50 (RAW264.7 [4]): 5.06 µM; IC50 (RAW264.7 [5]): 18.9 µM; inhibition at 5 µM (RAW264.7 [6]): 19.5%; viability at 5 µM [7]: 98%
O=c1cc(-c2ccc(O)c(O)c2)oc2ccccc12,–,–,0.99 µM,inhibition at 10 µM (RAW264.7 [8]): 64.3%; IC50 (RAW264.7 [4]): 6.29 µM; IC50 (RAW264.7 [5]): 45.1 µM; viability at 10 µM [9]: 93.6%
Cc1ccc2oc(-c3ccccc3)cc(=O)c2c1 [6-METHYLFLAVONE],17.4%,116%,–,–
O=c1cc(-c2ccc(-c3cccc4ccccc34)cc2)oc2ccccc12,11.6%,99.8%,–,–
O=c1cc(-c2ccc(-c3ccccc3)cc2)oc2ccccc12,4.45%,92.3%,–,–
CC(C)Cc1ccc(C(C)C(=O)O)cc1 (centres undefined) [IBUPROFEN],–,–,0.39 µM,IC50 (RAW264.7 [4]): 1480 µM; IC50 (RAW264.7 [5]): 3310 µM
O=c1cc(-c2ccc(Cl)cc2)oc2ccccc12,5.07%,85.8%,–,–
O=c1cc(-c2ccccc2)oc2ccccc12 [FLAVONE],16.3%,95.4%,–,–
O=c1cc(-c2ccccc2)oc2ccc([N+](=O)[O-])cc12,11.9%,90.8%,–,–
COc1ccc(-c2cc(=O)c3c(OC)cc(OC)cc3o2)cc1 [TRIMETHYLAPIGENIN],27.2%,103%,–,–
COc1cccc(-c2cc(=O)c3ccccc3o2)c1,15.7%,102%,–,–
COc1ccc2c(=O)cc(-c3ccccc3)oc2c1 [7-METHOXYFLAVONE],17.7%,133%,–,–
CC(C)(C)c1ccc(-c2cc(=O)c3ccccc3o2)cc1,19.5%,99.1%,–,–
CC(C)(C)C(=O)Oc1ccc2c(=O)cc(-c3ccccc3)oc2c1,28.6%,102%,–,–
COc1ccc(-c2cc(=O)c3ccccc3o2)c(OC)c1,20.9%,107%,–,–
O=c1cc(-c2ccc(O)cc2)oc2ccccc12,37.5%,96.1%,3.77 µM,IC50 (RAW264.7 [4]): 48.3 µM; IC50 (RAW264.7 [5]): 145 µM
CS(=O)(=O)Nc1ccc([N+](=O)[O-])cc1OC1CCCCC1 [NS-398],–,–,6.74 µM,–
COc1cc(OC)c2c(=O)cc(-c3ccc(O)c(O)c3)oc2c1,–,–,14 µM,IC50 (RAW264.7 [4]): 34.8 µM; IC50 (RAW264.7 [5]): > 200 µM
O=c1cc(-c2cccc(O)c2)oc2ccccc12,17.7%,97%,–,–
COc1cc(OC)c2c(=O)cc(-c3ccc(OC)c(OC)c3)oc2c1 [TETRAMETHYLLUTEOLIN],37.6%,109%,3.13 µM,IC50 (RAW264.7 [4]): 32.5 µM; IC50 (RAW264.7 [5]): 73.9 µM
O=c1cc(-c2ccccc2)oc2ccc(Cl)cc12 [6-CHLOROFLAVONE],26.1%,91.4%,–,–
COc1ccc(-c2cc(=O)c3ccccc3o2)cc1 [4'-METHOXYFLAVONE],8.76%,111%,–,–
O=c1cc(-c2ccccc2)oc2cc3c(cc12)OCO3,20.9%,119%,–,–
C[Si](C)(C)c1ccc(-c2cc(=O)c3ccccc3o2)cc1,18%,95%,–,–
